The record followed here is patent US20220348883A1, “HIGH-DENSITY CELL CULTURE METHOD” (AJINOMOTO CO., INC., priority 2020, published 2022).

The experiment deals with iPS cell 1210B2 strain. The conditions noted are these: StemFit AK03N+10 mg/L choline chloride vs StemFit AK03N; suspension culture seeded at 6×10^5 cells/mL; viable cells measured on 8th day of culture; n=1.

Experimental: In the following Example, the proliferation effect of induced pluripotent stem cells (iPS cells) by choline were evaluated. As the iPS cell, 1210B2 strain purchased from iPS Academia Japan was used. In addition, as a medium for iPS cells, a commercially available StemFit AKO3N (Ajinomoto Co., Inc.) was used.
Using a 30 mL single use bioreactor for iPS cells (ABLE: BWV-S03A), iPS cell 1210B2 strain was seeded in StemFit AK03N+10 μM Y-27632 (Wako: 034-24024) at a cell density of 6×10^5 cells/mL and the cells were cultured with stirring in a CO2 incubator under the conditions of 37° C., CO2 concentration=5%, stirring speed=120 rpm. On the second day of seeding, 70% of the medium was replaced with StemFit AK03N. […] The cells were transferred to a micro bioreactor ambr15 (sartorius:001-0881), and stirring culture was continued under the conditions of 37° C., pH=7.2, dissolved oxygen concentration=20%, stirring speed=300 rpm. […] On the 8th day of culture, the number of viable cells was measured using Vi-CELL™ XR (Beckman Coulter), a live/dead cell autoanalyzer.

In the case of `C[N+](C)(C)CCO.[Cl-]` [choline, choline chloride], the “influence of choline on the proliferation of iPS cells (number of viable cells)” value is “cell proliferation promoting effect”.
